From PubChem BioAssay AID179 (DTP/NCI, 2004)
Values joined by “and” are separate entries in the source; they are usually repeats but may differ in a detail not shown here. Identical values can stand only once. Active and inactive are the calls of the source.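 How the source made its calls: active means compounds giving half or more protection of infected cells from virus-caused growth loss, again on retest; inactive means the rest.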 Where a SMILES comes first, the peptide text is derived from it. [ ]: non-standard residue; d: D form. The star is where a group is joined. ξ: configuration not given here. NMeN = CN[C@@H](CC(N)=O)C(=O)O; NMeV = CN[C@H](C(=O)O)C(C)C; ξNMeV = CNC(C(=O)O)C(C)C; Boc = CC(C)(C)OC(=O)*; ξNMeA = CNC(C)C(=O)O

Test system: CEM cells HIV-1 protection, formazan growth assay
Assay: NCI AIDS Antiviral Assay
Settings: for IC50: measured here: growth of uninfected CEM cells
How it was run: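 Protection of CEM cells against HIV-1 was scored from cell growth (soluble formazan) across five concentrations, with parallel uninfected cells. Lack of protection may reflect toxicity.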

Row | SMILES | EC50 | IC50 | outcome
1 | S=C(Nc1ccccc1)Nc1ccccc1SC(/C=C/NNC1=NC(c2ccccc2)C(c2ccccc2)=NN1)c1ccccc1 (centres undefined) | > 15.5 µM | > 15.5 µM | –
2 | O=C(O)COc1ccc(O)c2c1C(=O)CCCC2=O | – | – | inactive
3 | CC(C)(O)[C@H]1OC2CC[C@@]3(C)C(O)(CC[C@H]4Cc5c([nH]c6ccccc56)C43C)C2=CC1=O (some centres undefined) | > 200 µM | 13.8 µM | –
4 | COc1ccc(/C=C2\C=C3OCOC3=CC2=O)cc1 | > 10.7 µM | > 10.7 µM | –
5 | COC(=O)N1C=NC2C3(C)C(C)=C(C)C3(C)C21C (centres undefined) | > 263 µM | 151 µM | –
6 | Nc1nc(NCC2(CO)CC2)cc(=O)[nH]1 | > 200 µM | > 200 µM | –
7 | CSc1nc(N)c(NC2OC(CO)C(O)C2O)c(=O)[nH]1 (centres undefined) | 81.3 µM and > 200 µM | 110 µM and 112 µM | –
8 | CC(C)CCC[C@@H](C)C1CCC2[C@@H]3CC=C4C[C@@H](C(=O)NCC[N+](C)(C)CCCS(=O)(=O)[O-])CC[C@]4(C)C3CC[C@@]21C (some centres undefined) | – | – | inactive
9 | Cc1c([N+](=O)[O-])c(=O)oc2c(C)c3occc(=O)c3cc12 | > 6.92 µM | > 6.92 µM | –
10 | Cc1cn(C2CC3C(COC(C)(C)N3O)O2)c(=O)[nH]c1=O (centres undefined) | 7.76 µM | > 200 µM | –
11 | O=c1cnn2c(n1)OC1C(O)C(CO)OC12 (centres undefined) | > 200 µM | 19.1 µM | –
12 | O=c1[nH]c2cc(C(F)(F)F)ccc2nc1CBr | > 200 µM | 6.61 µM | –
13 | O=C1C(c2ccccc2)=C(c2ccccc2)C(c2ccc(Sc3ccc(C4=C(c5ccccc5)C(=O)C(c5ccccc5)=C4c4ccccc4)cc3)cc2)=C1c1ccccc1 | > 1.82 µM | > 1.82 µM | –
14 | CC(C)N(C(=O)C12C3C4C5(C#N)C3C1(C#N)C5C42I)C(C)C (centres undefined) | > 617 µM | 316 µM | –
15 | COc1ccc(C2CC(=O)c3c(O)cc(O)cc3O2)cc1O (centres undefined) | > 832 µM | 74.1 µM | –
16 | Cn1c(=O)n2n(c1=O)Cc1cccc3cccc(c13)C2 | > 200 µM | > 200 µM | –
17 | CC(=O)N1CCC2(c3ccccc3N(C(C)=O)C2c2ccc(O)cc2)C1C(=O)O (centres undefined) | – | – | inactive
18 | Clc1ccc(CCn2cncn2)cc1 | > 537 µM | 525 µM | –
19 | Cc1ccc(NC(=O)CCCC(=O)CC(=O)c2ccc(Br)cc2)cc1 | > 309 µM | > 309 µM | –
20 | O=C(Nc1cc(Cl)c(Cl)cc1Cl)C(=O)C(C(=O)c1ccc(Cl)c(Cl)c1)C1OC(=O)c2ccccc21 (centres undefined) | > 45.7 µM | 22.4 µM | –
21 | FC(F)(F)C1(C(F)(F)F)OC(Cl)(Cl)C(Cl)(Cl)O1 | > 200 µM | > 200 µM | –

Row | SMILES | EC50 | IC50 | outcome
22 | CCC1Oc2c(CC=C(C)C)c(OC(C)=O)c(C(OC(C)=O)C(C)CC)c3oc(=O)cc1c23 (centres undefined) | > 200 µM | 95.5 µM | –
23 | COC(=O)c1ccccc1/C=C1\Cc2cc(C)c(C)cc2C1=O | > 100 µM | > 100 µM | –
24 | COc1ccc2c3c1O[C@]1(C)C34CCN(C)C(C2)C42C=C[C@@]1(OC)c1c(O)ccc(O)c12 | > 60.3 µM | > 60.3 µM | –
25 | COc1ccc2nc3c([N+](=O)[O-])ccc(NCCCN(C)C)c3c(N)c2c1 | > 200 µM | 0.195 µM | –
26 | Cc1ccc(/C(O)=C/C(=O)C(=O)NC23CC4CC(CC(C4)C2)C3)cc1 | > 200 µM | 77.6 µM | –
27 | c1ccc(N=C2SC(c3ccccc3)CN2C23CC4CC(CC(C4)C2)C3)cc1 (centres undefined) | > 200 µM | > 200 µM | –
28 | COC(=O)C(C)N(C)C(=O)[C@H](CC(N)=O)N(C)C(=O)[C@@H]1CCCN1C(=O)[C@H](C(C)C)N(C)C(=O)C(C(C)C)N(C)C(=O)[C@@H](NC(=O)OC(C)(C)C)C(C)C (some centres undefined) (Boc-V[ξNMeV][NMeV]P[NMeN][ξNMeA]-OMe) | > 324 µM | > 324 µM | –
29 | CCCCn1cnnc1NS(=O)(=O)c1cc(C)c(Cl)cc1SCC(=O)O | > 200 µM | > 200 µM | –
30 | C[C@]1(O)CC[C@H]2[C@@H]3CCC4=CC(=O)CC[C@]4(C)[C@@]3(Cl)[C@@H](Cl)C[C@@]21C | > 200 µM | > 200 µM | –
31 | Clc1ccc(SSc2ccc(Cl)cn2)nc1 | > 200 µM | 20.4 µM | –
32 | CCOC(=O)C1NS(=O)(=O)NC(C(=O)OCC)NS(=O)(=O)N1 (centres undefined) | – | – | inactive
33 | [N-]=[N+]=C(C(=O)CN1CCCC1=O)S(=O)(=O)c1ccccc1 | > 813 µM | 437 µM | –
34 | CCOC(=O)c1ccc(CS(=O)(=O)c2ccccc2)cc1 | > 23.4 µM | > 23.4 µM | –
35 | COc1ccc2nc3cc([N+](=O)[O-])ccc3c(NCCCN(C)C)c2c1 | > 2 µM | 0.38 µM | –
36 | Cc1cc2c(c3ncccc13)OCN(Cc1ccc(Cl)cc1)C2 | > 200 µM | 1.07 µM | –
37 | CCOCc1c(C)cc(C)c(C2C(C(=O)c3ccccc3)N3c4ccccc4C=CC3C2(C#N)C(=O)OCC)c1C (centres undefined) | > 200 µM | 33.9 µM | –
38 | COC(=O)/C(=N\NC(N)=O)C(C(=O)C(=O)Nc1ccccc1C(=O)OC)c1nc2ccc(C(=O)c3ccccc3)cc2[nH]c1=O (centres undefined) | – | – | inactive
39 | COC(=O)C1Cc2c(n(Cc3ccccc3)c3ccccc23)C(CCC(=O)O)N1C(C)C (centres undefined) | – | – | inactive
40 | COc1ccc(C(=O)C2CCC(C(=O)O)C2)cc1 (centres undefined) | – | – | inactive
41 | CCCCCC(=O)Cc1cc(O)cc2c1C(=O)Oc1cc(O)c(C(=O)O)c(CCCCC)c1O2 | > 200 µM | 33.9 µM | –
42 | COc1ccc(C(C)=C(C#N)C#N)cc1 | > 182 µM | > 182 µM | –

Row | SMILES | EC50 | IC50 | outcome
43 | O=C1Cc2c(-c3ccccc3)cc(-c3ccc(Cl)cc3)nc2-c2ccccc2N1 | > 200 µM | 93.3 µM | –
44 | CCOC(=O)C(NC(=O)Nc1ccc(Cl)c(Cl)c1)C(F)(F)F (centres undefined) | > 200 µM | 141 µM | –
45 | CC1=C(C)SC(=C2Sc3c(n(C)c(=O)n(C)c3=O)S2)S1 | 182 µM | > 200 µM | –
46 | COc1ccc(OC)c(/C=N/N=C(\N)NO)c1 | > 603 µM | 115 µM | –
47 | COc1ccc(C2C(Cl)C(=O)N2NC(=O)c2ccccc2O)cc1OC (centres undefined) | > 50.1 µM | 41.7 µM | –
48 | CC1(C#N)N(C(=O)c2ccccc2)c2ccccc2N1C(=O)c1ccccc1 | – | – | inactive
49 | O=C(c1ccc(Cl)cc1)c1c(O)c2ccccc2oc1=O | > 200 µM | > 200 µM | –
50 | C/C(CCn1[nH]c(=O)ccc1=O)=N\Nc1ccc([N+](=O)[O-])cc1[N+](=O)[O-] | – | 20 µM | inactive
51 | Cc1c(NC(=S)Nc2ccc(Cl)cc2)c(=O)n(-c2ccccc2)n1C | > 200 µM | > 200 µM | –
52 | CN(C)C12CCCCC1S(=O)(=O)C2 (centres undefined) | > 891 µM | > 891 µM | –
53 | O=C(O)c1cccc(/C=C/c2ccc(N=Nc3cc(S(=O)(=O)O)c4cccnc4c3O)cc2C(=O)O)c1 | 166 µM | > 200 µM | –
54 | CCOCC(C)(CO)CC(C)CO (centres undefined) | > 200 µM | > 200 µM | –
55 | CC(C)C1(Cl)CCC2C3(C)CCCC(C)(C(=O)O)C3CC(Cl)C2(Cl)C1Cl (centres undefined) | > 200 µM | 41.7 µM | –
56 | Cc1sc2c(c1C)/C(=N\O)c1cccn1-2 | > 200 µM | 41.7 µM | –
57 | COC1C2C=CC(C2)[C@H]1[N+](=O)[O-] (some centres undefined) | – | – | inactive
58 | COc1ccc(C[C@@H](CO)NC2=C(C#N)CCC2)cc1 | > 200 µM | 64.6 µM | –
59 | COc1cc(N=CN(C)C)c2ncccc2c1 | – | – | inactive
60 | CC(O)C(NC(=O)c1ccccc1)C(=O)N(Cc1ccccc1)Cc1ccccc1 (centres undefined) | > 17.8 µM | > 17.8 µM | –
61 | c1ccc(C2=NOC3(c4ccccc4)CC(c4cccs4)Sc4ccccc4N23)cc1 (centres undefined) | > 200 µM | 70.8 µM | –
62 | CCOc1ccccc1Nc1nc(C)c(C(=O)CC(=O)C(=O)Nc2ccccc2)s1 | > 158 µM | 57.5 µM | –
